How the values were obtained:
Conditions in all cases: incubation time: 72 h
[1] = system: MDA-MB-231; assay: normalised response (% of control), CellTox Green; higher = less cell death (100 = DMSO, 0 = benzethonium chloride kill control)
Outline: (§1)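 Normalised signals at single concentrations make up the values. They come from breast cancer cell lines seeded (20 µl suspension) into 384-well plates with compound at 5 concentrations in 10-fold steps over a compound-specific 10,000-fold range, incubated 72 h, and read for CellTox Green fluorescence then CellTiter-Glo luminescence. Each plate was normalised to 0.1 % DMSO (100) and a positive kill control (0).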

[2] = system: CAL-85-1; assay: as above
Outline: as §1

[3] = system: MDA-MB-436; assay: as above
Outline: as §1

[4] = system: CAL-51; assay: as above
Outline: as §1

[5] = system: MDA-MB-453; assay: as above
Outline: as §1

[6] = system: HCC1143; assay: as above
Outline: as §1

[7] = system: MDA-MB-468; assay: as above
Outline: as §1

[8] = system: DU-4475; assay: as above
Outline: as §1

[9] = system: MCF-10A; assay: as above
Outline: as §1

[10] = system: BT-474; assay: as above
Outline: as §1

[11] = system: CAL-120; assay: as above
Outline: as §1

[12] = system: HCC1937; assay: as above
Outline: as §1

[13] = system: HDQ-P1; assay: as above
Outline: as §1

[14] = system: MFM-223; assay: as above
Outline: as §1

[15] = system: CAL-85-1; assay: drug sensitivity score (DSS), CellTiter-Glo (DSS (AUC-based score)); higher = stronger drug effect (viability inhibition or cytotoxicity); extreme values may be limits of the assay
Outline: (§2)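 The drug sensitivity score reflects the area under a fitted dose-response curve. To obtain it, breast cancer cells in 20 µl suspension were seeded into 384-well plates containing compound at 5 concentrations, 10-fold apart over a compound-specific 10,000-fold range, and incubated 72 h. CellTox Green fluorescence (485/520 nm) was read first and CellTiter-Glo luminescence second, after 10 min at room temperature. Each plate was normalised to 0.1 % DMSO and a positive kill control.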

[16] = system: MDA-MB-436; assay: as above
Outline: as §2

[17] = system: Hs578T; assay: as above
Outline: as §2

[18] = system: CAL-51; assay: as above
Outline: as §2

[19] = system: MDA-MB-453; assay: as above
Outline: as §2

[20] = system: HCC1599; assay: as above
Outline: as §2

[21] = system: SK-BR-3; assay: as above
Outline: as §2

[22] = system: MDA-MB-468; assay: as above
Outline: as §2

[23] = system: DU-4475; assay: as above
Outline: as §2

[24] = system: BT-474; assay: as above
Outline: as §2

[25] = system: CAL-120; assay: as above
Outline: as §2

[26] = system: HCC1937; assay: as above
Outline: as §2

[27] = system: HDQ-P1; assay: as above
Outline: as §2

[28] = system: MFM-223; assay: as above
Outline: as §2

Row | SMILES | normalised response [1] | normalised response [2] | normalised response [3] | normalised response [4] | normalised response [5] | normalised response [6] | normalised response [7] | normalised response [8] | normalised response [9] | normalised response [10] | normalised response [11] | normalised response [12] | normalised response [13] | normalised response [14] | drug sensitivity score [15] | drug sensitivity score [16] | drug sensitivity score [17] | drug sensitivity score [18] | drug sensitivity score [19] | drug sensitivity score [20] | drug sensitivity score [21] | drug sensitivity score [22] | drug sensitivity score [23] | drug sensitivity score [24] | drug sensitivity score [25] | drug sensitivity score [26] | drug sensitivity score [27] | drug sensitivity score [28]
1 | CCC1=C[C@@H]2CN(C1)Cc1c([nH]c3ccccc13)[C@@](C(=O)OC)(c1cc3c(cc1OC)N(C)[C@H]1[C@@](O)(C(=O)OC)[C@H](OC(C)=O)[C@]4(CC)C=CCN5CC[C@]31[C@@H]54)C2 [Vinorelbine] (10000 nM) | -5.22% | 71% | 70.8% | 7% | 90.3% | 106% | 5.11% | 90.9% | 41.4% | 59.1% | 75.5% | 83.1% | 97.8% | 42.7% |  |  |  |  |  |  |  |  |  |  |  |  |  | 
2 | COc1cc([C@@H]2c3cc4c(cc3[C@@H](O[C@@H]3O[C@@H]5CO[C@@H](C)O[C@H]5[C@H](O)[C@H]3O)[C@H]3COC(=O)[C@H]23)OCO4)cc(OC)c1O [Etoposide] (10000 nM) | 61% | 34.3% | 80.9% | 36.8% | 109% | 98.3% | -48% | 78.4% | 108% | 97.3% | 75.7% | 106% | 109% | 103% |  |  |  |  |  |  |  |  |  |  |  |  |  | 
3 | CN(N=O)C(=O)N[C@@H](C=O)[C@@H](O)[C@H](O)[C@H](O)CO [Streptozocin] (10000 nM) | 106% | 80.7% | 68.7% | 102% | 84.9% |  | 64.1% | 98.1% | 116% | 105% | 110% | 71.6% | 110% | 88.1% |  |  |  |  |  |  |  |  |  |  |  |  |  | 
4 | CC(=O)Nc1ccc(C(=O)Nc2ccccc2N)cc1 [Tacedinaline] |  |  |  |  |  |  |  |  |  |  |  |  |  |  | 0 | 0 | 0 | 0 | 0 | 0 | 0 | 0 | 0 | 0 | 0 | 0 | 0 | 0

— the supplement of paper PMC4862054
